# Results from BindingDB's records for PubMed 36812150 (China Pharmaceutical University, 2023).
# pKi: −log10 of the molar value.
# Molecular target: Sucrase-isomaltase, intestinal (Rattus norvegicus, UniProt P23739)
# Assay: Binding affinity to sucrase in rat small intestinal brush border membrane vesicles assessed as inhibition constant using sucrose as substrate incubated for 30 mins by glucose-oxidase method
# Chain of Sucrase-isomaltase, intestinal (P23739 1-1013 limits assumed): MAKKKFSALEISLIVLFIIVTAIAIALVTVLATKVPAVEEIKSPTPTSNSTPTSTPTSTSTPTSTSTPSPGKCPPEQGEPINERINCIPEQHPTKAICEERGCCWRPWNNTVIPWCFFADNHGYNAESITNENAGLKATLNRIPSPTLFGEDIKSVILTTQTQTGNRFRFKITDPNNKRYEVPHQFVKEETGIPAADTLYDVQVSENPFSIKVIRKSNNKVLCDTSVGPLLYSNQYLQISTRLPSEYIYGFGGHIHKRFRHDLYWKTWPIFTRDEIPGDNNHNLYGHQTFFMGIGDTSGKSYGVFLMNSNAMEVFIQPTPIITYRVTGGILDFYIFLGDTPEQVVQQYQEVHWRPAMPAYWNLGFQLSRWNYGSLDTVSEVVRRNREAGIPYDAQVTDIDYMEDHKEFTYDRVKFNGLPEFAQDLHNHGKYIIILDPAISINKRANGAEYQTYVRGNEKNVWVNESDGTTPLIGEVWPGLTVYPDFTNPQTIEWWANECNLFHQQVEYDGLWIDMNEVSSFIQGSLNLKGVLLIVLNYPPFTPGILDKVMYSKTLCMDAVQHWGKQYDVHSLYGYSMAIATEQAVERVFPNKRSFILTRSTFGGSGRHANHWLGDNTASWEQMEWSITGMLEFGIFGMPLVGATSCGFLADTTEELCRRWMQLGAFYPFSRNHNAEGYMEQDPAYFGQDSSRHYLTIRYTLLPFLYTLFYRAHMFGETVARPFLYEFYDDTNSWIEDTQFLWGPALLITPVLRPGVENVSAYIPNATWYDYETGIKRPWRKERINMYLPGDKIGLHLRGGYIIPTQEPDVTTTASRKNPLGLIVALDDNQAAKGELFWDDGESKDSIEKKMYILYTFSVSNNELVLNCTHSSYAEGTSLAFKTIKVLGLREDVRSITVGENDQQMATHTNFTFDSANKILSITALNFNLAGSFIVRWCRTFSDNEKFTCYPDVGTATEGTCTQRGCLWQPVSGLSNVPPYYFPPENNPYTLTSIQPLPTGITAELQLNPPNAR
# Chain of Sucrase-isomaltase, intestinal (P23739 1014-1841 limits assumed): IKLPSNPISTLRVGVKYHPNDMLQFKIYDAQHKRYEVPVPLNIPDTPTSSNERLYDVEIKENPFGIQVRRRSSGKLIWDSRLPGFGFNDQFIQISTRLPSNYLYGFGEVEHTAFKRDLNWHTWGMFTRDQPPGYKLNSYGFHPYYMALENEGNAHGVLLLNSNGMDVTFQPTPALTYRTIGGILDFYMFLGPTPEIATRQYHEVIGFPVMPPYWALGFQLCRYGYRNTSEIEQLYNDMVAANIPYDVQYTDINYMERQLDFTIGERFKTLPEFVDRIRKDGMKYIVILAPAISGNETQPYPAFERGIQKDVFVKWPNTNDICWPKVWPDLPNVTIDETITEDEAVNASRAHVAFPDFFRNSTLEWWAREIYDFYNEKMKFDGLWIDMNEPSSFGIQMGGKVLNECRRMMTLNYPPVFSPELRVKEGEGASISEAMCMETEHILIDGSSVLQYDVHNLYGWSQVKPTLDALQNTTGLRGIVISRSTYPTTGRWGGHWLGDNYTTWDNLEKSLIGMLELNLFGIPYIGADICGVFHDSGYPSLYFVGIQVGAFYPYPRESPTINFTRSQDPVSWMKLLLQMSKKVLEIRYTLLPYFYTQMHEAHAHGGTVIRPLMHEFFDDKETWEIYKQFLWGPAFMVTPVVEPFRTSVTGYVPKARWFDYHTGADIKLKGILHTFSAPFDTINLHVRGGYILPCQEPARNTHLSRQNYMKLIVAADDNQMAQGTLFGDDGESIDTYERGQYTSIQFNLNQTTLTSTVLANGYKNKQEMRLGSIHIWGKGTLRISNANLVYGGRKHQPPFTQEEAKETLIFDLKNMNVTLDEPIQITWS
row,Structure (SMILES),pKi
1,OC[C@@H]1[C@@H](O)[C@H](O)C[S@+]1C[C@@H](O)[C@H]1OC(c2ccccc2)OC[C@H]1O (stereo not given in full),6.51
2,O=[N+]([O-])c1ccccc1C1OC[C@@H](O)[C@@H]([C@H](O)C[S@@+]2C[C@@H](O)[C@H](O)[C@H]2CO)O1 (stereo not given in full),6.80
3,OC[C@@H]1[C@@H](O)[C@H](O)C[S@+]1C[C@@H](O)[C@H]1OC(c2ccccc2C(F)(F)F)OC[C@H]1O (stereo not given in full),6.72
4,OC[C@@H]1[C@@H](O)[C@H](O)C[S@+]1C[C@@H](O)[C@H]1OC(c2ccccc2Cl)OC[C@H]1O (stereo not given in full),6.68
5,OC[C@@H]1[C@@H](O)[C@H](O)C[S@+]1C[C@@H](O)[C@H]1OC(c2ccccc2F)OC[C@H]1O (stereo not given in full),6.62
